Where two headings read alike, the source gives them in different places.
System: E. multilocularis metacestodes
Test: PGI-assay: drug-induced damage on in vitro cultured metacestodes (Pathogen Box screening cascade and EC50)
Type: cell-based, Echinococcus multilocularis
Conditions: for PGI release, % of the Tx-100 control, 5d / PGI release, % of the Tx-100 control, 12d / cytotoxicity at 10 µM: 10 µM, singlets; for cytotoxicity at 10 µM: Echinococcus multilocularis; for PGI release, % of Tx-100 control, average, 5d / PGI release, % of Tx-100 control, average, 12d: confirmatory screening at 10 µM in triplicates, values as % of Tx-100 control
[1] = 120 h, 5 days of incubation, read-out: PGI release, % of the Tx-100 control, 5d
[2] = 288 h, 12 days of incubation, read-out: PGI release, % of the Tx-100 control, 12d

SMILES | PGI release, % of the Tx-100 control, 5d (5 days of incubation) | PGI release, % of the Tx-100 control, 12d (12 days of incubation) | also measured
Nc1ccc2ncnc(Nc3ccc(OCc4cccc(F)c4)c(Cl)c3)c2c1 [MMV688273] | -1.47% | -4.16% | –
O=C(CN1CCOCC1)Nc1ccc2ncnc(Nc3ccc(OCc4cccc(F)c4)c(Cl)c3)c2c1 [MMV688274] | -0.59% | -0.94% | –
CC1=Nc2ccc(Cl)cc2C(O)(c2ccc(C)cc2)N1CCN1CCCCC1 (stereo not drawn) [MMV688279] | 0.73% | 1.56% | –
CN1CCN(S(=O)(=O)c2ccc(-c3ccc4c(Nc5ncc(Cl)cn5)ccnc4c3)cc2)CC1 [MMV688283] | 0.90% | -1.47% | –
COc1ccc(-c2nnc3ccc(-c4cccc(C(C)C)c4)cn23)cc1OC [MMV688313] | -0.11% | -3.88% | –
CC(=O)NC[C@H]1CN(c2ccc(-c3ccc(CNCc4cnn[nH]4)cc3)c(F)c2)C(=O)O1 [MMV688327, Radezolid, reference compound] | – | – | cytotoxicity at 10 µM [1]: -0.89%; cytotoxicity at 10 µM [2]: -1.52%
CC(=O)N1CCN(c2ccc(Oc3ccc(Cl)cc3O)cc2)CC1 [MMV688330] | -0.72% | -5.52% | –
Nc1nc(N)c2c3c(sc2n1)CN(Cc1ccccc1)CC3 [MMV688345] | -0.50% | -0.61% | –
COC(=O)c1ccc(F)cc1NS(=O)(=O)c1cccc(-c2cnn(Cc3ccccc3)c2)c1 [MMV688350] | -0.16% | 0.44% | –
O=C1[C@@H](Oc2ccccc2)[C@@H](c2ccc(Cl)cc2)N1CCn1cnc2c(NCc3ccccc3)ncnc21 [MMV688352] | 2.57% | 3.05% | –
c1cc(C2=NCCN2)cc(-c2cc(-c3ccc(C4=NCCN4)cc3)no2)c1 [MMV688361] | -0.63% | -1.49% | –
COc1cc(C2=NCCN2)cc2cc(-c3ccc(C4=NCCN4)cc3)oc12 [MMV688362] | 0.03% | 0.64% | –
CC(C)(C)OC(=O)N1CCC(Cn2nc(-c3cnc4ccccc4c3)c3c(N)ncnc32)CC1 [MMV688364] | 0.11% | -0.13% | –
NCCN(C(=O)c1ccc(Cl)cc1Cl)c1ccc(OCc2ccc(Cl)cc2)cc1 [MMV688371] | 45.68% | 52.47% | PGI release, % of Tx-100 control, average, 5d (5 days of incubation): 3.16%; PGI release, % of Tx-100 control, average, 12d (12 days of incubation): 3.77%
O=C(Nc1ccc(F)c(-c2nc3ncc(-c4ccccc4)cc3[nH]2)c1)N1CCCC1 [MMV688372] | 1.21% | 0.82% | –
COc1cc(C2=NCCN2)ccc1-c1cn(-c2cccc(C3=NCCN3)c2)nn1 [MMV688407] | 1.48% | 1.29% | –
CC1=Nc2ccc(Cl)cc2C(c2ccccc2)N1CCNC(=O)CN(C)C (stereo not drawn) [MMV688410] | 0.08% | -1.09% | –
Nc1ncnc2c1c(-c1cnc3ccccc3c1)nn2CC1CCNCC1 [MMV688411] | -0.63% | -1.19% | –
CO[C@@H]1CN(c2ccc(C#CC3(O)CN4CCC3CC4)c(Cc3ccccc3)n2)C[C@H]1O (stereo partly drawn) [MMV688415] | 3.28% | -0.74% | –
CC(C)(C)OC(=O)N1CCN(c2nccc(-c3ccc(-c4ccc(Cl)cc4)s3)n2)CC1 [MMV688416] | -0.30% | -2.84% | –
CC(C)n1nc(-c2cc3c(Cl)cccc3[nH]2)c2c(N)ncnc21 [MMV688417] | -4.81% | -2.43% | –
Cn1ccnc1CNCCS(=O)(=O)c1cccc(Nc2ccc(-c3cccc(F)c3)cn2)c1 [MMV688466] | -0.60% | -2.11% | –
CCCCN(CCCC)c1c(C#N)cc(S(=O)(=O)Nc2ccccc2)cc1C#N [MMV688467] | 17.50% | 35.72% | PGI release, % of Tx-100 control, average, 5d (5 days of incubation): 4.92%; PGI release, % of Tx-100 control, average, 12d (12 days of incubation): 11.29%

SMILES | PGI release, % of the Tx-100 control, 5d (5 days of incubation) | PGI release, % of the Tx-100 control, 12d (12 days of incubation) | also measured
Nc1ncnc2n[nH]c(Cc3cccc4ccccc34)c12 [MMV688469] | -0.61% | -1.22% | –
CS(=O)(=O)N1CCC(CCn2nc(Cc3cccc4ccccc34)c3c(N)ncnc32)CC1 [MMV688470] | 1.33% | 2.31% | –
CC(C(=O)Nc1ccc2oc(-c3ccncc3)nc2c1)c1ccccc1 (stereo not drawn) [MMV688471] | -1.25% | 5.56% | –
CC(Oc1cccc(Cl)c1)C(=O)Nc1ccc2oc(-c3ccncc3)nc2c1 (stereo not drawn) [MMV688472] | -0.36% | 0.44% | –
COc1cc(C2=NCCN2)ccc1-n1cc(-c2cccc(C3=NCCN3)c2)nn1 [MMV688474] | -0.50% | -0.97% | –
CC(=O)NCC1CN(c2ccc(-c3ccc(CO)cc3)c(F)c2)C(=O)O1 (stereo not drawn) [MMV688508] | -0.03% | -1.49% | –
O=C(OCc1ccccc1)N1CCC(c2cc(-c3ccncc3)c(-c3ccc(F)cc3)[nH]2)CC1 [MMV688509] | 0.97% | 2.28% | –
N=C(N)c1ccc(-c2cc(-c3ccccc3)on2)cc1 [MMV688514] | -2.10% | 0.39% | –
CC(C)(C)C(=O)N(CCCCCCN1C[C@H](O)[C@@H](O)[C@H](O)[C@H]1CO)C1CCCCCC1 [MMV688543] | -1.12% | -4.43% | –
COc1ccc(C2=NCCN2)cc1-c1cn(-c2cccc(C3=NCCN3)c2)nn1 [MMV688547] | -0.44% | -1.41% | –
CC(C)(C)n1nc(-c2ccccc2)c2c(N)ncnc21 [MMV688548] | -2.51% | 1.17% | –
CCc1ccccc1-n1c(C)cn2c3c(=O)n(C(C(=O)OC)C(C)C)c(=O)n(C)c3nc12 (stereo not drawn) [MMV688550] | -2.01% | -6.25% | –
Cc1nn(C(=O)Nc2cccc(C(F)(F)F)c2)c(C)c1Sc1ncccn1 [MMV688552] | 0.35% | 1.89% | –
O=C(NCc1ccoc1)N1CCN(Cc2ccc3c(c2)OCO3)CC1 [MMV688553] | 0.80% | -2.91% | –
CNc1snc(C)c1C(=O)NCCOc1ccc(OC)cc1 [MMV688554] | -1.97% | 1.18% | –
O=C(NCc1ccco1)N1CCN(Cc2ccc(Cl)s2)CC1 [MMV688555] | 1.40% | 3.17% | –
NCC(c1cccs1)S(=O)(=O)c1ccccc1 (stereo not drawn) [MMV688557] | 0.26% | -2.41% | –
CN1CCC(c2cc(-c3ccncc3)c(-c3ccc(F)cc3)[nH]2)CC1 [MMV688703] | 0.17% | -2.29% | –
Cc1cc2nc(NC(=O)C(C)(C)C)nc(Cl)c2n1Cc1ccc(Cl)cc1 [MMV688704] | 5.09% | -0.53% | –
CON=C(C(=O)OC)c1ccccc1CON=C(C)c1cccc(C(F)(F)F)c1 [MMV688754, Trifloxystrobin] | – | – | cytotoxicity at 10 µM [1]: -1.92%; cytotoxicity at 10 µM [2]: -5.74%
O=[N+]([O-])c1cn2c(n1)OC[C@@H](OCc1ccc(OC(F)(F)F)cc1)C2 [MMV688755, Pretomanid, reference compound] | – | – | cytotoxicity at 10 µM [1]: -0.93%; cytotoxicity at 10 µM [2]: -1.01%
CC(=O)NC[C@H]1CN(c2ccc(N3CCSCC3)c(F)c2)C(=O)O1 [MMV688756, Sutezolid, reference compound] | – | – | cytotoxicity at 10 µM [1]: -3.45%; cytotoxicity at 10 µM [2]: -0.37%
CS(=O)(=O)c1ccc(C(=O)N(CC2CCCO2)c2nc3ccccc3s2)cc1[N+](=O)[O-] (stereo not drawn) [MMV688761] | 1.26% | 0.42% | –
